Where two headings read alike, the source gives them in different places.
Columns and labels:
H9 cells [1] = assay: Uptake into living H9 cells; format: cell-based, human; settings: for rate constant for uptake: 10% fetal calf serum
Procedure: For measurement, the pellet was diluted in 3 ml PBS+0.1% CTAB immediately prior to fluorescence measurement. Fluorescence measurements were made using an excitation wavelength of 451 nm, and an emission wavelength of 526 nm.
The protocol used is as above in (1), modified as below for those experiments in the presence of colchicine: Colchicine (1 mg/ml) was added to H9 cells at 5×10^.ident. cells/ml, and incubated for 1 hour. The cells were centrifuged, fresh medium was added, and 1b (25 μM) was added. Samples were taken at 0, 2, and 4 hours.

H9 cells [2] = assay: Effects on H9 cells of Ed6Br with prior activation by 420 nm light (Trypan Blue); format: cell-based; settings: Homo sapiens, H9, 24 h, read-out: % Viable Cells
Procedure: H9 cells were cultivated in RPMI-1640 medium containing an additional 10% fetal calf serum at 37.5° C. in air having added 5% CO2. A 5.46 ml aliquot of cell suspension containing 9.16×10^5 H9 cells per ml was harvested, the cells sedimented at 450 x g for 10 minutes and resuspended in fresh growth medium. Two hundred microliter aliquots of the suspension were centrifuged as above and the resulting cell pellet served for resuspension in dye plus medium suspension for this study.
Six milliliters of suspension of Cremophor EL micelles containing Ed6Br in RPMI-1640 containing 10% additional fetal calf serum was made by diluting a 2.5 millimeter solution of the dye in Cremophor EL to give an average Ed6Br concentration of […], and the resulting suspension divided into 2 three milliliter aliquots. One aliquot was irradiated with 420 #5 nm light filtered from a xenon arc lamp at an irradiance of 20 mW/cm^2 to a total fluence of 200 J/cm^2. The companion aliquot was wrapped in aluminum foil and handled in identical fashion to the irradiated sample. These two aliquots served as stocks for deforming effects of both previously irradiated and un-irradiated Ed6Br at different concentrations from 0 up to 100 mM on H9 cells kept in the dark. Dulutions of the stock dye suspension into additional fresh growth medium were made within 1 hour of light irradiation to give dye-medium suspensions with average Ed6Br concentrations of […] for both previously irradiated and dark dye samples. The H9 cell pellets were resuspended in these dye-Cremophor EL suspensions and held at 37.5° C. in an air atmosphere containing an additional 5% CO2. After 24 hrs. culture of the number of total and viable […] was determined by Trypan Blue exclusion using a hemocytometer and microscope for cell counting.

[3] = Binding kinetics of dye to synthetic vesicles (fluorescence increase)
Procedure: All of the vehicles used in these studies were prepared to have a final lipid, egg lecithin+cholesterol concentration of 10 mg/ml. Cholesterol concentrations were varied between 0 and 45 mol % by varying the lipid composition from which the vesicles were produced. The subject dyes were added in 10% aqueous isopropyl alcohol solutions to vesicle suspensions in water. The dyes are non-fluorescent in 10% aqueous isopropy alcohol, but are highly fluorescent in vesicles. The increase in fluorescence was monitored at an excitation wavelength of 460 nm and an emission wavelength of 519 nm. Fluorescence intensity was measured as a function of time, and fit to a standard first-order kinetic plot.

[4] = Tissue bonding of swine dura mater with DiEd6Br and light
Text: (§1) Bonding together of the overlapping surfaces of two strips of swine dura mater and of two thin slices of beef muscle with application of DiEd6Br in Cremophor EL as a carrier and irradiation with 420 # 5 nm light filtered from a xenon arc lamp were studied.
Strips approximately 3×0.5 cm in dimension were cut from freshly harvested swine cranial dura mater, washed with 70% ethanol/water and blotted to dryness with standard chemical filter paper. External faces of each member of two pairs of strips were coated with a stock solution of Cremophor EL saturated at room temperature with DiEd6Br (approximately 2.5 millimolar), overlapped 1 cm with long axes parallel, and clamped between two Pyrex glass slides with edges of the slide-tissue-slide sandwich sealed with Parafilm. One sample was irradiated with 420 # 5 nm light of 25 mW/cm^2 irradiance for […]. at room temperature to give a total light fluence of approximately 1800 J/cm^2. The companion sample was wrapped in aluminum foil for light shielding and placed alongside the irradiated sample for the duration of the experiment.
Following their respective irradiation or being held in the dark in similar temperature ambience, one end of a strip of each sample was clamped and from the other a Styrofoam container was hung by a clamp and fine suspension wires (weight of clamp plus container plus wires=33.3 gm). Weights (10 gm each) were added gently in a sequential fashion to give a total weight of 296.3 gm upon which the strip is separated at their interface within the overlapped region of the irradiated sample. Strips of the un-irradiated sample separated immediately at their interface under the 33.3 gm loading of the "weighing" container. […] Elongation was approximately 50% at shearing of the interface.

[5] = Tissue bonding of beef muscle strips with DiEd6Br and light; settings: 0.1 millimolar
Text: as §1
Thin strips approximately 10 cm long, 1 cm wide, and 0.05-0.1 cm thick were sliced from beef steak obtained from a local meat market. Surfaces of the strips of two sample pairs were coated with a stock solution of DiEd6Br in Cremophor EL (0.1 millimolar concentration) and placed together to give approximately 2 cm overlap. One overlapping strip sample was irradiated for 24 hours with water-filtered (IR spectrum absorber) light from a 150 w xenon arc lamp. Beam diameter incident on the sample was approximately 3 cm. The other sample was wrapped in aluminum foil, placed alongside the irradiated sample, and served as dark control.

Gramacidin D = assay: Effects of 420 nm radiation on liposomal-bound Gramacidin D and DiEd6Br fluorescence; format: biochemical; settings: 100 J/cm^2, 420 nm; for Tryptophan fluorescence ratio irradiated/unirradiated (IT/DT): 0 μM dye 91.23

CCCCCCNc1ccc2c3c(cccc13)C(=O)N(CCCCCC)C2=O [Compound 1b, 4-(hexyl)amino-N-hexyl-1,8-naphthalimide]
rate constant for uptake (H9 cells [1]; 1 μM, 4° C.): 3.5 ± 0.6 × 10^-4 s^-1
rate constant for uptake (H9 cells [1]; 1 μM, 37° C.): 3.6 ± 1.7 × 10^-4 s^-1
rate constant for uptake (H9 cells [1]; 5 μM, 4° C.): 2.7 ± 1.0 × 10^-4 s^-1
rate constant for uptake (H9 cells [1]; 5 μM, 37° C.): 3.3 ± 0.7 × 10^-4 s^-1
rate constant for uptake (H9 cells [1]; 25 μM, 4° C.): 2.3 ± 0.9 × 10^-4 s^-1
rate constant for uptake (H9 cells [1]; 25 μM, 37° C.): 2.5 ± 0.3 × 10^-4 s^-1
total uptake in presence of colchicine (H9 cells [1]; 25 μM, colchicine pre-incubated 1 hour): decreased
slope of log/log plot of fluorescence vs. time, presence and absence of colchicine (H9 cells [1]; after 2 hours, 25 μM): essentially the same slope

CCCCCCNc1c(Br)cc2c3c(cccc13)C(=O)N(CCCCCC)C2=O [Compound VII, 3-bromo-4-(hexyl)amino-N-hexyl-1,8-naphthalimide]
viability at 1 µM (H9 cells [2]; no previous light activation): 72.7%
viability at 1 µM (H9 cells [2]; previous light activation): 68.4%
viability at 10 µM (H9 cells [2]; no previous light activation): 77.2%
viability at 10 µM (H9 cells [2]; previous light activation): 31.8%
viability at 25 µM (H9 cells [2]; no previous light activation): 57.9%
viability at 25 µM (H9 cells [2]; previous light activation): 4.9%
viability at 50 µM (H9 cells [2]; no previous light activation): 27.4%
viability at 50 µM (H9 cells [2]; previous light activation): 0%
viability at 75 µM (H9 cells [2]; no previous light activation): 33.9%
viability at 75 µM (H9 cells [2]; previous light activation): 0%
rate constant for binding ([3]; 0 mol % cholesterol): 0.814 ± 0.005 × 10^-3 s^-1
rate constant for binding ([3]; 15 mol % cholesterol): 1.020 ± 0.005 × 10^-3 s^-1
rate constant for binding ([3]; 30 mol % cholesterol): 1.54 ± 0.02 × 10^-3 s^-1
rate constant for binding ([3]; 45 mol % cholesterol): 2.75 ± 0.01 × 10^-3 s^-1

CCCCCCN1C(=O)c2cccc3c(NCCNC(=O)CCCCC(=O)NCCNc4c(Br)cc5c6c(cccc46)C(=O)N(CCCCCC)C5=O)c(Br)cc(c23)C1=O [Compound XLIV]
deformation after separation ([4]; irradiated): no plastic deformation
elongation at shearing of the interface ([4]; irradiated): approximately 50%
total weight at separation of strips ([4]; irradiated, approximately 1800 J/cm^2): 296.3 gm
loading at which strips separated immediately ([4]; un-irradiated): ≤ 33.3 gm
bonding of strips ([5]; dark control): separated under their own weight
bonding of strips ([5]; irradiated 24 hours): discernable tactile finger pressure was felt when two hands were used to pull the irradiated strip apart, indicating bonding of the strip surface
DiEd6Br fluorescence ratio irradiated/unirradiated (ID/DD) (Gramacidin D; 10 μM): 5.03%
Tryptophan fluorescence ratio irradiated/unirradiated (IT/DT) (Gramacidin D; 10 μM): 10.57%
DiEd6Br fluorescence ratio irradiated/unirradiated (ID/DD) (Gramacidin D; 20 μM): 9.24%
Tryptophan fluorescence ratio irradiated/unirradiated (IT/DT) (Gramacidin D; 20 μM): 10.77%
DiEd6Br fluorescence ratio irradiated/unirradiated (ID/DD) (Gramacidin D; 50 μM): 20.26%
Tryptophan fluorescence ratio irradiated/unirradiated (IT/DT) (Gramacidin D; 50 μM): 14.40%

From patent US5235045A, “Non-azo naphthalimide dyes” (priority 1992, dated 1993)
